Consider three compounds from patent US4443436A, “C-20-Modified macrolide derivatives of the macrolide antibiotics tylosin, desmycosin, macrocin, and lactenocin” (Eli Lilly and Company, priority 1982, dated 1984).

Assay [1] has as its system Staphylococcus aureus S13E. Description: MIC, standard agar-dilution assay, Staphylococcus aureus S13E. The assay is classed as cell-based. The settings on record: Staphylococcus aureus, S13E.
For assay [2], the system named is Mycoplasma synoviae. Description: MIC, broth-dilution microtiter test, Mycoplasma synoviae. The class given is cell-based. Conditions: Mycoplasmopsis synoviae. The source says: (§1) The MIC's in Table X were obtained using conventional broth-dilution microtiter tests.
Assay [3] has as its system Staphylococcus aureus X1.1. Description: MIC, standard agar-dilution assay, Staphylococcus aureus X1.1. The assay is classed as cell-based. The settings on record: Staphylococcus aureus, X1.1.
Assay [4] relates to Streptococcus bovis 80. Description: MIC, broth-dilution microtiter test, Streptococcus bovis 80. The assay is classed as cell-based. The settings on record: Streptococcus equinus.
Description: as §1

Assay [5] concerns Staphylococcus epidermidis EPI1. In words: MIC, standard agar-dilution assay, Staphylococcus epidermidis EPI1. The class given is cell-based. The settings on record: Staphylococcus epidermidis, EPI1.
In assay [6] the test system is Pasteurella multocida 17E. Description: MIC, broth-dilution microtiter test, Pasteurella multocida 17E. The assay is classed as cell-based.
Description: as §1

The test system of assay [7] is Streptococcus Group 9960. Description: MIC, standard agar-dilution assay, Streptococcus Group 9960. The class given is cell-based. The settings on record: GROUP9960; Streptococcus Group 9960; agar dilution; read-out: MIC. Background: In agar dilution, organisms are placed on agar that contains the substance at set levels.
Assay [8] concerns Pasteurella hemolytica 22C. Description: MIC, broth-dilution microtiter test, Pasteurella hemolytica 22C. The class given is cell-based. The settings on record: Pasteurella hemolytica 22C; broth-dilution microtiter; read-out: MIC.
Description: as §1

The subject of assay [9] is Haemophilus influenzae R252. Description: MIC, standard agar-dilution assay, Haemophilus influenzae R252. Conditions: Haemophilus influenzae R252; ampicillin-resistant strain; read-out: MIC. The assay is classed as cell-based.
Assay [10] deals with Pasteurella multocida 60A. In words: MIC, broth-dilution microtiter test, Pasteurella multocida 60A. The assay is classed as cell-based. Conditions: Pasteurella multocida 60A; avian isolate; broth-dilution microtiter; read-out: MIC.
Description: as §1

Assay [11] relates to Streptococcus pyogenes C203. In words: In vivo protection of mice experimentally infected with S. pyogenes C203. The settings on record: Streptococcus pyogenes, mice, doses given 1 and 4 hours post-infection. The procedure: The C-20 modified derivatives of this invention have shown in vivo antimicrobial activity against experimentally-induced infections in laboratory animals. When two doses of test compound were administered to mice experimentally infected with S. pyogenes C203, the activity observed was measured as an ED50 value [effective dose in mg/kg to protect 50% of the test animals: see Warren Wick, et al., J. Bacteriol. 81, 233-235 (1961)].

Assay [12] has as its system Streptococcus pyogenes C203. In words: MIC, standard agar-dilution assay, Streptococcus pyogenes C203. The class given is cell-based. The settings on record: Streptococcus pyogenes, C203.
Assay [13] relates to Staphylococcus aureus. In words: MIC, broth-dilution microtiter test, Staphylococcus aureus. The assay is classed as cell-based.
Description: as §1

Assay [14] has as its system Staphylococcus aureus V41. In words: MIC, standard agar-dilution assay, Staphylococcus aureus V41. The assay is classed as cell-based. Conditions: Staphylococcus aureus, V41.
Assay [15] deals with Mycoplasma hyorhinis. In words: MIC, broth-dilution microtiter test, Mycoplasma hyorhinis. Conditions: Mycoplasma hyorhinis; broth-dilution microtiter; read-out: MIC. The class given is cell-based.
Description: as §1

Assay [16] relates to Mycoplasma gallisepticum. In words: MIC, broth-dilution microtiter test, Mycoplasma gallisepticum. The assay is classed as cell-based. The settings on record: Mycoplasmoides gallisepticum.
Description: as §1

The test system of assay [17] is Staphylococcus epidermidis EPI2. Description: MIC, standard agar-dilution assay, Staphylococcus epidermidis EPI2. The assay is classed as cell-based. The settings on record: Staphylococcus epidermidis, EPI2.
In assay [18] the test system is Streptococcus pneumoniae Park I. Description: microbe, parasite or virus in culture. The assay is classed as cell-based. The settings on record: Streptococcus pneumoniae.
In assay [19] the test system is Haemophilus influenzae Holt. Description: MIC, standard agar-dilution assay, Haemophilus influenzae Holt. The class given is cell-based.
In assay [20] the test system is Staphylococcus aureus X400. Description: MIC, standard agar-dilution assay, Staphylococcus aureus X400. The assay is classed as cell-based. The settings on record: Staphylococcus aureus, X400.
Assay [21] relates to Streptococcus Group D X66. In words: MIC, standard agar-dilution assay, Streptococcus Group D X66. The class given is cell-based.
[22] abbreviates: Mycoplasma synoviae, broth-dilution microtiter, read-out: MIC.
[23] abbreviates: Streptococcus bovis 80, broth-dilution microtiter, read-out: MIC.
[24] abbreviates: Pasteurella multocida 17E, bovine isolate, broth-dilution microtiter, read-out: MIC.

SMILES strings stand for the structures. In brackets after ≈: the same amount, converted by molar mass. Where two headings read alike, the source gives them in different places.

By ED50 is commonly meant the dose at which the effect has come halfway, by size or by number of responders. Regarding `CCC1OC(=O)CC(O)C(C)C(OC2OC(C)C(OC3CC(C)(O)C(O)C(C)O3)C(N(C)C)C2O)C(CCN2C(=O)c3ccccc3C2=O)CC(C)C(=O)C=CC(C)=CC1COC1OC(C)C(O)C(OC)C1OC` (stereo not shown) [Compound 1, 20-DH-DO-20-N-Phthalimidotylosin], the MIC is 1 µg/mL (≈ 0.955 µM) in assay [1]; 6.25 µg/mL (≈ 5.97 µM) in assay [2]; 1 µg/mL (≈ 0.955 µM) in [3]; 50 µg/mL (≈ 47.7 µM) in assay [4] (80); 1 µg/mL (≈ 0.955 µM) in assay [5]; greater than 50 µg/mL in assay [6] (Pasteurella multocida, 17E). For the same compound, the MIC is 128 µg/mL (≈ 122 µM) in [7]; greater than 50 µg/mL in [8]; greater than 128 µg/mL in assay [9]; greater than 50 µg/mL in assay [10]; 2 µg/mL (≈ 1.91 µM) in assay [12]; 6.25 µg/mL (≈ 5.97 µM) in assay [13]. In addition, the MIC in assay [14] is 1 µg/mL (≈ 0.955 µM); in assay [15] it was greater than 50 µg/mL; in assay [16], 3.12 µg/mL (≈ 2.98 µM); in assay [17] it was 1 µg/mL (≈ 0.955 µM); in assay [18], 32 µg/mL (≈ 30.6 µM); in [19] (Haemophilus influenzae), greater than 128 µg/mL. This compound came in with an MIC in assay [20] of 2 µg/mL (≈ 1.91 µM). For the same compound, the ED50 is greater than 6.3 mg/kg in assay [11] (C203, sc, subcutaneous, read-out: ED50, Subcutaneous) and 71 mg/kg in [11] (C203, oral, read-out: ED50, Oral).

`CCOC(=O)NN(CCC1CC(C)C(=O)C=CC(C)=CC(COC2OC(C)C(O)C(OC)C2OC)C(CC)OC(=O)CC(O)C(C)C1OC1OC(C)C(OC2CC(C)(O)C(O)C(C)O2)C(N(C)C)C1O)C(=O)OCC` (stereo not shown) [Compound 9, 20-DH-DO-20-[N-(Ethoxycarbonyl)-N-(ethoxycarbonylamino)]aminotylosin]: the MIC in [1] was 2 µg/mL (≈ 1.86 µM); in assay [2] (setting [22]), 25 µg/mL (≈ 23.2 µM); in assay [3] it was 2 µg/mL (≈ 1.86 µM); in assay [4] (setting [23]), greater than 50 µg/mL; in assay [5] it was 4 µg/mL (≈ 3.72 µM); in [6] (setting [24]), greater than 50 µg/mL. For the same compound, the MIC was greater than 128 µg/mL in assay [7]; greater than 50 µg/mL in assay [8]; greater than 128 µg/mL in assay [9]; greater than 50 µg/mL in assay [10]; 16 µg/mL (≈ 14.9 µM) in assay [12]; 6.25 µg/mL (≈ 5.81 µM) in assay [13]. The MIC in assay [14] was 2 µg/mL (≈ 1.86 µM); in assay [15], greater than 50 µg/mL; in assay [16] it was 1.56 µg/mL (≈ 1.45 µM); in assay [17], 2 µg/mL (≈ 1.86 µM); in [18], 2 µg/mL (≈ 1.86 µM); in assay [19] (Haemophilus influenzae Holt, ampicillin-sensitive strain, read-out: MIC), greater than 128 µg/mL. Moreover, the MIC in assay [20] is 8 µg/mL (≈ 7.43 µM); in assay [21], greater than 128 µg/mL.

Regarding `CCC1OC(=O)CC(O)C(C)C(OC2OC(C)C(OC3CC(C)(O)C(O)C(C)O3)C(N(C)C)C2O)C(CCOC(=O)COc2ccccc2)CC(C)C(=O)C=CC(C)=CC1COC1OC(C)C(O)C(OC)C1OC` (stereo not shown) [Compound 11, 20-DH-20-O-(Phenoxyacetyl)tylosin], the MIC in assay [1] was 0.5 µg/mL (≈ 0.475 µM); in assay [2] (setting [22]) it was 3.12 µg/mL (≈ 2.97 µM); in assay [3], 0.5 µg/mL (≈ 0.475 µM); in [4] (setting [23]) it was 3.12 µg/mL (≈ 2.97 µM); in assay [5] it was 0.5 µg/mL (≈ 0.475 µM); in assay [6] (setting [24]) it was greater than 50 µg/mL. The MIC was 8 µg/mL (≈ 7.6 µM) in assay [7]; greater than 50 µg/mL in [8]; greater than 128 µg/mL in assay [9]; greater than 50 µg/mL in [10]; 0.5 µg/mL (≈ 0.475 µM) in assay [12]; 1.56 µg/mL (≈ 1.48 µM) in assay [13] (broth-dilution microtiter, read-out: MIC). Also, the MIC in assay [14] is 0.5 µg/mL (≈ 0.475 µM); in assay [15], greater than 50 µg/mL; in [16] (Mycoplasma gallisepticum, broth-dilution microtiter, read-out: MIC), 1.56 µg/mL (≈ 1.48 µM); in assay [17] it was 0.5 µg/mL (≈ 0.475 µM); in assay [18] it was 0.5 µg/mL (≈ 0.475 µM); in assay [19] (Haemophilus influenzae) it was greater than 128 µg/mL. The MIC amounted to 1 µg/mL (≈ 0.95 µM) in assay [20] and 8 µg/mL (≈ 7.6 µM) in assay [21].
